ChEMBL document CHEMBL5512663, “Design, synthesis, and evaluation of novel quindoline derivatives with fork-shaped side chains as RNA G-quadruplex stabilizers for repressing oncogene NRAS translation” (Eur J Med Chem, 2024)
The source made the active and inactive calls. No cut-off for these calls is given here.

Columns and labels:
SK-MEL-2 [1] = test: Cytotoxicity against human SK-MEL-2 cells incubated for 48 hrs by MTT assay; format: functional, cell-based; details: SK-MEL-2, 48 h
Quadruplex RNA [2] = test: Thermal stabilization of NRAS RNA G4 (unknown origin) assessed as change in melting temperature at 10 uM by CD spectrophotometer analysis; format: nucleic-acid assay
SK-MEL-2 [3] = test: Downregulation of NRAS protein level in human SK-MEL-2 cells after 72 hrs by Western blotting analysis; format: functional, cell-based; details: dose 0.5-1 µM
Quadruplex DNA [4] = test: Thermal stabilization of KRAS G4 (unknown origin); format: nucleic-acid assay
Quadruplex RNA [5] = test: Binding affinity to NRAS RNA G4 (unknown origin) by SPR method; format: nucleic-acid assay
HepG2 = test: Cytotoxicity against human HepG2 cells incubated for 48 hrs by MTT assay; format: functional, cell-based; details: HepG2, 48 h
dsDNA = test: Thermal stabilization of DNA duplex (ds18) (unknown origin); format: nucleic-acid assay
Quadruplex RNA [6] = test: Induction of NRAS RNA G4 stabilization in human SK-MEL-2 cells transfected with NRAS mutant assessed as reduction in ratio of RL to FL at 0.5 uM incubated for 66 hrs by dual luciferase reporter gene assay; format: cell-based
MCF7 = test: Cytotoxicity against human MCF7 cells incubated for 48 hrs by MTT assay; format: functional, cell-based; details: MCF7, 48 h
Quadruplex RNA [7] = test: Induction of RNA G4s stabilization in human SK-MEL-2 cells assessed as increase in cytoplasmic rG4s after 24 hrs by immunofluorescence assay; format: cell-based
HL-60 = test: Cytotoxicity against human HL-60 cells incubated for 48 hrs by MTT assay; format: functional, cell-based; details: HL-60, 48 h
[8] = Toxicity in BALB/c nude mouse assessed as pain at 1 mg/kg, ip administered every day for 21 days; format: organism-based; details: in vivo, 504 h, time 21 day
[9] = Toxicity in BALB/c nude mouse assessed as distress at 1 mg/kg, ip administered every day for 21 days; format: organism-based; details: in vivo, 504 h, time 21 day
Quadruplex DNA [10] = test: Thermal stabilization of NRAS DNA G4 (unknown origin) assessed as change in melting temperature at 10 uM by CD spectrophotometer analysis; format: nucleic-acid assay
SK-MEL-2 [11] = test: Inhibition of colony formation in human SK-MEL-2 cells at 0.13 to 0.25 uM after 10 days by crystal violet staining based assay; format: functional, cell-based; details: dose 0.13-0.25 µM, time 10.0 day
[12] = Toxicity in BALB/c nude mouse assessed as weight loss at 1 mg/kg, ip administered every day for 21 days and measured every 3 days; format: organism-based; details: in vivo, 504 h, time 21 day
Quadruplex RNA [13] = test: Induction of NRAS RNA G4 stabilization in human SK-MEL-2 cells transfected with NRAS 5'-UTR wild-type assessed as reduction in ratio of RL to FL at 0.5 uM incubated for 66 hrs by dual luciferase reporter gene assay; format: cell-based
SK-MEL-2 [14] = test: Antiproliferative activity against human SK-MEL-2 cells at 0.25 uM incubated for 48 hrs by MTT assay; format: functional
[15] = Toxicity in BALB/c nude mouse assessed as discomfort at 1 mg/kg, ip administered every day for 21 days; format: organism-based; details: in vivo, 504 h, time 21 day
SK-MEL-2 [16] = test: Antitumor activity against human SK-MEL-2 cells xenografted in BALB/c nude mouse assessed as reduction in tumor weight at 1 mg/kg, ip; format: functional, organism-based; details: time 21.0 day, TDE = time-dependent effect
A-375 = test: Cytotoxicity against human A-375 cells incubated for 48 hrs by MTT assay; format: functional, cell-based; details: A-375, 48 h
[17] = Drug localization in human SK-MEL-2 cells cytoplasm at 0.5 uM incubated for 24 hrs by laser scanning confocal microscopy; format: ADME, subcellular; details: sk-mel-2, 24 h
[18] = Toxicity in BALB/c nude mouse assessed as organ damage at 1 mg/kg, ip administered every day for 21 days; format: organism-based; details: in vivo, 504 h, time 21 day
SK-MEL-2 [19] = test: Antitumor activity against human SK-MEL-2 cells xenografted in BALB/c nude mouse assessed as reduction in tumor growth inhibition at 1 mg/kg, ip administered every day for 21 days; format: functional; details: SK-MEL-2, 504 h, time 21 day, read-out: TGI
[20] = Thermal stabilization of thrombin binding aptamer (unknown origin)
SK-MEL-2 [21] = test: Antitumor activity against human SK-MEL-2 cells xenografted in BALB/c nude mouse assessed as reduction in tumor volume at 1 mg/kg, ip measured every 3 days; format: functional, organism-based; details: time 21.0 day, TDE = time-dependent effect
RNA = test: Thermal stabilization of RNA hairpin (unknown origin); format: nucleic-acid assay
SK-MEL-2 [22] = test: Downregulation of NRAS mRNA level in human SK-MEL-2 cells by qRT-PCR analysis; format: functional, cell-based

## CCCCN(CCCC)CCCOc1ccc2nc3c(oc4ccccc43)c(NCCN3CCCC3)c2c1
SK-MEL-2 [1]
  IC50: 4.5 µM
Quadruplex RNA [2]
  ΔTm: 20.2 °C

## CCCCN(CCCC)CCOc1ccc2nc3c(oc4ccc(F)cc43)c(NCCN3CCCCC3)c2c1
SK-MEL-2 [1]
  IC50: 8.8 µM
Quadruplex RNA [2]
  ΔTm: 26.2 °C

## CCCCN(CCCC)CCOc1ccc2nc3c(oc4ccc(F)cc43)c(NCCN3CCCC3)c2c1
SK-MEL-2 [1]
  IC50: 5.1 µM
Quadruplex RNA [2]
  ΔTm: 24 °C

## CN(C)CCCCCCOc1ccc2nc3c(oc4ccc(F)cc43)c(NCCN3CCCC3)c2c1
SK-MEL-2 [1]
  IC50: 7.4 µM
Quadruplex RNA [2]
  ΔTm: 24.8 °C

## NCCNc1c2cc(OCCN3CCCCCC3)ccc2nc2c1oc1ccc(F)cc12
SK-MEL-2 [1]
  IC50: 6.3 µM
Quadruplex RNA [2]
  ΔTm: 18.1 °C

## CCCCN(CCCC)CCCOc1ccc2nc3c(oc4ccc(F)cc43)c(NCCN(C)C)c2c1
SK-MEL-2 [1]
  IC50: 4 µM
Quadruplex RNA [2]
  ΔTm: 23.9 °C

## CCCCN(CCCC)CCCNc1ccc2nc3c(oc4ccc(F)cc43)c(NCCN3CCCC3)c2c1
SK-MEL-2 [1]
  IC50: 3.4 µM
Quadruplex RNA [2]
  ΔTm: 19.8 °C

## CCCCN(CCCC)CCCOc1ccc2nc3c(oc4ccccc43)c(NCCN(C)C)c2c1
SK-MEL-2 [1]
  IC50: 5.7 µM
Quadruplex RNA [2]
  ΔTm: 22 °C

## CN(C)CCCCCCOc1ccc2nc3c(oc4ccc(F)cc43)c(NCCN(C)C)c2c1
SK-MEL-2 [1]
  IC50: 7.2 µM
Quadruplex RNA [2]
  ΔTm: 24.1 °C

## NCCCNc1c2cc(OCCN3CCCCCC3)ccc2nc2c1oc1ccc(F)cc12
SK-MEL-2 [1]
  IC50: 5.4 µM
Quadruplex RNA [2]
  ΔTm: 24.2 °C

## CCN(CC)CCCOc1ccc2nc3c(oc4ccc(F)cc43)c(NCCN(C)C)c2c1
SK-MEL-2 [1]
  IC50: 6.4 µM
Quadruplex RNA [2]
  ΔTm: 26.3 °C

## CCCCN(CCCC)CCCNc1ccc2nc3c(oc4ccc(F)cc43)c(NCCN3CCN(C)CC3)c2c1
SK-MEL-2 [1]
  IC50: 4.3 µM
Quadruplex RNA [2]
  ΔTm: 25.5 °C

## CCCCN(CCCC)CCOc1ccc2nc3c(oc4ccc(F)cc43)c(NCCN)c2c1
SK-MEL-2 [1]
  IC50: 5.1 µM
Quadruplex RNA [2]
  ΔTm: 13.4 °C

## CCN(CC)CCCOc1ccc2nc3c(oc4ccc(F)cc43)c(NCCN3CCCC3)c2c1
SK-MEL-2 [1]
  IC50: 7.1 µM
Quadruplex RNA [2]
  ΔTm: 26.3 °C

## CCCCN(CCCC)CCCOc1ccc2nc3c(oc4ccc(F)cc43)c(NCCCN)c2c1
SK-MEL-2 [3]
  Activity: Dose-Dependent Effect
Quadruplex DNA [4]
  Activity: inactive
Quadruplex RNA [5]
  Kd: 2.31 µM
HepG2
  IC50: 1.5 µM
dsDNA
  Activity: inactive
Quadruplex RNA [6]
  Activity: inactive
MCF7
  IC50: 4.1 µM
Quadruplex RNA [7]
  Activity: Active
HL-60
  IC50: 2.7 µM
[8]
  Activity: Non-Toxic
SK-MEL-2 [1]
  IC50: 2 µM
[9]
  Activity: Non-Toxic
Quadruplex DNA [10]
  ΔTm: 19 °C
SK-MEL-2 [11]
  inhibition: Active
[12]
  Activity: Non-Toxic
Quadruplex RNA [13]
  Activity: Active
SK-MEL-2 [14]
  Activity: 100%
[15]
  Activity: Non-Toxic
SK-MEL-2 [16]
  Activity: Tde
A-375
  IC50: 4.5 µM
[17]
  Drug uptake: Active
[18]
  Activity: Non-Toxic
SK-MEL-2 [19]
  inhibition in vivo at 1 mg/kg: 54.9%
Quadruplex RNA [2]
  ΔTm: 26.1 °C
[20]
  Activity: inactive
SK-MEL-2 [21]
  Activity: Tde
RNA
  Activity: inactive
SK-MEL-2 [22]
  Activity: inactive

## CCCCN(CCCC)CCOc1ccc2nc3c(oc4ccc(F)cc43)c(NCCN(C)C)c2c1
SK-MEL-2 [1]
  IC50: 4.5 µM
Quadruplex RNA [2]
  ΔTm: 26.3 °C

## CCCCN(CCCC)CCCNc1ccc2nc3c(oc4ccc(F)cc43)c(NCCN(C)C)c2c1
SK-MEL-2 [1]
  IC50: 3.4 µM
Quadruplex RNA [2]
  ΔTm: 19.4 °C

## CCCCN(CCCC)CCCOc1ccc2nc3c(oc4ccc(F)cc43)c(NCCN3CCN(C)CC3)c2c1
SK-MEL-2 [1]
  IC50: 4 µM
Quadruplex RNA [2]
  ΔTm: 31.8 °C

## CN(C)CCCCCCOc1ccc2nc3c(oc4ccc(F)cc43)c(NCCN)c2c1
SK-MEL-2 [1]
  IC50: 7.1 µM
Quadruplex RNA [2]
  ΔTm: 20.7 °C

## CN(C)CCCCCCOc1ccc2nc3c(oc4ccc(F)cc43)c(NCCCN)c2c1
SK-MEL-2 [1]
  IC50: 7.7 µM
Quadruplex RNA [2]
  ΔTm: 25.3 °C

## CSc1ccc(/C=C/c2ccc3nc4c(oc5ccccc54)c(NCCN4CCN(C)CC4)c3c2)cc1
SK-MEL-2 [1]
  IC50: 3.2 µM
Quadruplex RNA [2]
  ΔTm: 16.8 °C

## CCCCN(CCCC)CCOc1ccc2nc3c(oc4ccc(F)cc43)c(NCCCN)c2c1
SK-MEL-2 [1]
  IC50: 2 µM
Quadruplex RNA [2]
  ΔTm: 22.1 °C

## CCCCN(CCCC)CCCOc1ccc2nc3c(oc4ccc(F)cc43)c(NCCN3CCCC3)c2c1
SK-MEL-2 [1]
  IC50: 4 µM
Quadruplex RNA [2]
  ΔTm: 20.8 °C

## CCCCN(CCCC)CCCOc1ccc2nc3c(oc4ccc(F)cc43)c(NCCN3CCCCC3)c2c1
SK-MEL-2 [1]
  IC50: 5.5 µM
Quadruplex RNA [2]
  ΔTm: 24.4 °C

## CCCCN(CCCC)CCCOc1ccc2nc3c(oc4ccc(F)cc43)c(NCCN)c2c1
SK-MEL-2 [1]
  IC50: 2.2 µM
Quadruplex RNA [2]
  ΔTm: 22.9 °C

## CN(C)CCNc1c2cc(OCCN3CCCCCC3)ccc2nc2c1oc1ccc(F)cc12
SK-MEL-2 [1]
  IC50: 6.6 µM
Quadruplex RNA [2]
  ΔTm: 18.1 °C

## CCN(CC)CCCOc1ccc2nc3c(oc4ccc(F)cc43)c(NCCN)c2c1
SK-MEL-2 [1]
  IC50: 6.7 µM
Quadruplex RNA [2]
  ΔTm: 21.2 °C

## CCCCN(CCCC)CCCOc1ccc2nc3c(oc4ccccc43)c(NCCCN)c2c1
SK-MEL-2 [1]
  IC50: 2.6 µM
Quadruplex RNA [2]
  ΔTm: 19.5 °C

## Fc1ccc2oc3c(NCCN4CCCC4)c4cc(OCCN5CCCCCC5)ccc4nc3c2c1
SK-MEL-2 [1]
  IC50: 6.9 µM
Quadruplex RNA [2]
  ΔTm: 21.4 °C

## CCCCN(CCCC)CCOc1ccc2nc3c(oc4ccc(F)cc43)c(NCCN3CCN(C)CC3)c2c1
SK-MEL-2 [1]
  IC50: 7.6 µM
Quadruplex RNA [2]
  ΔTm: 30.6 °C

## CCN(CC)CCCOc1ccc2nc3c(oc4ccc(F)cc43)c(NCCCN)c2c1
SK-MEL-2 [1]
  IC50: 3.9 µM
Quadruplex RNA [2]
  ΔTm: 25.3 °C

## CCCCN(CCCC)CCCNc1ccc2nc3c(oc4ccc(F)cc43)c(NCCN3CCCCC3)c2c1
SK-MEL-2 [1]
  IC50: 5.4 µM
Quadruplex RNA [2]
  ΔTm: 21.3 °C

## CCCCN(CCCC)CCCNc1ccc2nc3c(oc4ccc(F)cc43)c(NCCCN)c2c1
SK-MEL-2 [1]
  IC50: 4.5 µM
Quadruplex RNA [2]
  ΔTm: 19.3 °C
